The compounds below were run against T1, mouse ENT-1 transporter (Mus musculus, UniProt Q9JIM1) (assay: Adenosine transport activity (ENT1, [3H]-adenosine uptake)). Settings: stable cells expressing mouse ENT-1; [2,8-3H]-adenosine 6 nM, 20 min.
T1 construct: expressed in transfected cells
T1 sequence (Q9JIM1 1-460): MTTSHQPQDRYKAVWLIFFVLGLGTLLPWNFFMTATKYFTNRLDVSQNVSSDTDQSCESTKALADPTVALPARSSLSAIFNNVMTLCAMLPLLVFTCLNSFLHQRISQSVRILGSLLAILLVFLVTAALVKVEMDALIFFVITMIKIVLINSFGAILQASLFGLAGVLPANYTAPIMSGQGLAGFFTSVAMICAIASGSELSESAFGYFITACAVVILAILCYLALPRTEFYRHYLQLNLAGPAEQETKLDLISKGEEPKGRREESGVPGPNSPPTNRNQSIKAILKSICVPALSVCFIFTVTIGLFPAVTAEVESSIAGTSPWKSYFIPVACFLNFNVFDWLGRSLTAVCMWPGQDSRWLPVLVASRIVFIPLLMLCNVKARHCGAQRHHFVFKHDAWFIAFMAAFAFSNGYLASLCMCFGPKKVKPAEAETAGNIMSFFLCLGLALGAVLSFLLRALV
Assay type: cell-based
Protocol: To measure adenosine transport activity of ENT-1 mammalian cells, stable cells expressing the mouse ENT-1 transporter were plated on day 1 in 96-well culture plates at the density of 60,000 cells/well, in complete DMEM/F12 medium supplemented with glutamax, 10% FBS and 10 μg/ml puromycin. On day 2, the medium was aspirated and the cells were washed twice with uptake buffer (10 mM Hepes-Tris, pH 7.4 containing 150 mM NaCl, 1 mM CaCl2, 2.5 mM KCl, 2.5 mM MgSO4, 10 mM D-glucose) (UB). For inhibition experiments, cells were then incubated at RT with various concentrations of compounds with 1% DMSO final. Non-specific uptake was defined in the presence of 10 μM S-(4-Nitrobenzyl)-6-thioinosine (NBTI, Sigma Cat #N2255).
A solution containing [2,8-^3H]-adenosine 6 nM (40 Ci/mmol, American Radiolabeled chemicals Inc, Cat #ART 0287A) was then immediately added to the wells. The plates were then incubated for 20 min with gentle shaking and the reaction was stopped by aspiration of the mixture and washing (three times) with ice-cold UB. The cells were lysed by the addition of scintillation liquid, shaken 3 hours and the radioactivity in the cells was estimated using a microplates scintillation counter (TopCount NXT, Packard).

Compound | IC50 [µM]
Cc1ncc(-c2ccc3c(c2)N(c2cccc(C(=O)NCC4CC4)n2)C(=O)C3(C)C)cn1 [Example 25, N-(Cyclopropylmethyl)-6-(3,3-dimethyl-6-(2-methylpyrimidin-5-yl)-2-oxoindolin-1-yl)picolinamide] | 0.0499
Cc1ncc(-c2ccc3c(c2)N(c2cccc(C(=O)N(C)C)n2)C(=O)C3(C)C)cn1 [Example 23, 6-(3,3-Dimethyl-6-(2-methylpyrimidin-5-yl)-2-oxoindolin-1-yl)-N,N-dimethylpicolinamide] | 0.374
Cc1ncc(-c2ccc3c(c2)N(c2cncc(C(=O)NCC(F)(F)F)n2)C(=O)C3(C)C)cn1 [Example 8, 6-(3,3-Dimethyl-6-(2-methylpyrimidin-5-yl)-2-oxoindolin-1-yl)-N-(2,2,2-trifluoroethyl)pyrazine-2-carboxamide] | 0.451
Cc1ncc(-c2ccc3c(c2)N(c2nccc(C(=O)N(C)C)n2)C(=O)C3(C)C)cn1 [Example 17, 2-(3,3-Dimethyl-6-(2-methylpyrimidin-5-yl)-2-oxoindolin-1-yl)-N,N-dimethylpyrimidine-4-carboxamide] | 0.537
Cc1ncc(-c2ccc3c(c2)N(c2cncc(C(=O)NCCO)n2)C(=O)C3(C)C)cn1 [Example 6, 6-(3,3-Dimethyl-6-(2-methylpyrimidin-5-yl)-2-oxoindolin-1-yl)-N-(2-hydroxyethyl)pyrazine-2-carboxamide] | 0.03
Cc1ncc(-c2ccc3c(c2)N(c2ccnc(C(=O)N(C)C)n2)C(=O)C3(C)C)cn1 [Example 19, 4-(3,3-Dimethyl-6-(2-methylpyrimidin-5-yl)-2-oxoindolin-1-yl)-N,N-dimethylpyrimidine-2-carboxamide] | 0.725
Cc1ncc(-c2ccc3c(c2)N(c2cncc(C(=O)N(C)C)c2)C(=O)C3(C)C)cn1 [Example 30, 5-(3,3-Dimethyl-6-(2-methylpyrimidin-5-yl)-2-oxoindolin-1-yl)-N,N-dimethylnicotinamide] | 0.608

More lines, now with the values ahead:

IC50 [µM] | Compound
0.534 | CNC(=O)c1cc(N2C(=O)C(C)(C)c3ccc(-c4cnc(C)nc4)cc32)ccn1 [Example 35, 4-(3,3-Dimethyl-6-(2-methylpyrimidin-5-yl)-2-oxoindolin-1-yl)-N-methylpicolinamide]
0.477 | Cc1ncc(-c2ccc3c(c2)N(c2cncc(C(=O)NCC(F)(F)F)c2)C(=O)C3(C)C)cn1 [Example 32, 5-(3,3-Dimethyl-6-(2-methylpyrimidin-5-yl)-2-oxoindolin-1-yl)-N-(2,2,2-trifluoroethyl)nicotinamide]
0.319 | Cc1ncc(-c2ccc3c(c2)N(c2cncc(C(=O)NC4COC4)n2)C(=O)C3(C)C)cn1 [Example 43, 6-(3,3-Dimethyl-6-(2-methylpyrimidin-5-yl)-2-oxoindolin-1-yl)-N-(oxetan-3-yl)pyrazine-2-carboxamide]
0.243 | Cc1ncc(-c2ccc3c(c2)N(c2cncc(C(=O)NC(C)(C)C)n2)C(=O)C3(C)C)cn1 [Example 44, N-(tert-Butyl)-6-(3,3-dimethyl-6-(2-methylpyrimidin-5-yl)-2-oxoindolin-1-yl)pyrazine-2-carboxamide]
0.413 | 5-(3,3-Dimethyl-6-(2-methylpyrimidin-5-yl)-2-oxoindolin-1-yl)-N,2-dimethylnicotinamide [Example 41]
0.239 | Cc1ncc(-c2ccc3c(c2)N(c2ccc4c(n2)C(=O)NC4(C)C)C(=O)C3(C)C)cn1 [Example 38, 2-(3,3-Dimethyl-6-(2-methylpyrimidin-5-yl)-2-oxoindolin-1-yl)-5,5-dimethyl-5H-pyrrolo[3,4-b]pyridin-7(6H)-one]
